Data as given in patent publication US8394856B2, “(-)-Hydroxycitric acid for controlling inflammation” (Glykon Technologies Group, LLC, priority 2002, dated 2013).

Tests used:
[1] = literature (Sullivan and Gruen 1985); cited from earlier work
[2] = treated rats; Roche researchers (Sullivan and Triscari 1976); cited from earlier work
C-reactive protein = C-reactive protein in serum of rats fed a 30% fat, approximately 20% simple sugar diet; type: in vivo; conditions: salt approximately 76 mg/day
Text: (§1) To test the properties of HCA in various forms under conditions similar to those found in human clinical trials, the inventor arranged for rats to be fed a diet in which 30% of the calories were obtained from fat under standard conditions, with a further approximately 20% of the calories being supplied as simple sugars. Such a dietary combination of fat and simple sugars is noted as promoting a variety of metabolic imbalances and dysfunctions. The rats were intubated twice daily with one of five HCA salts or placebo. On weekends, the HCA was added to the food at an approprate dosage. The amount of HCA in each arm of 8 animals was based on the minimum dosage which had been found effective in the form of the pure trisodium salt of HCA in tests by Hoffmann-La Roche in animals ingesting a 70% glucose diet, i.e., 0.33 mmoles/kg body weight HCA given twice per day. […]
Tests were performed for C-reactive protein. […] Optical Density (OD) readings in the test kit used were 1 unit equals 50 picograms/mL. […]

[3] = Body weight in the same rat study; type: in vivo, rats; conditions: week 6; data not shown
Text: as §1, with “day. The HCA salts used were these: KCaHCA=a mixed potassium and calcium or double metal HCA salt commercially marketed as being entirely water soluble and of relatively high purity; KHCA=a relatively clean commercial potassium salt of HCA with a good mineral ligand attachment supplying 4467 mg potassium/100 grams of material; KMgHCA=three different dosage levels of an experimental potassium and magnesium salt with special characteristics, but suspected of being relatively unstable when exposed to stomach acid.” for “day.”

SMILES: O=C(O)CC(O)(C(=O)O)C(O)C(=O)O (single isomer, unassigned; (-)) [HCA, (−)-Hydroxycitric acid]
- crossing of the blood-brain barrier [1]: does not cross the blood-brain barrier
- plasma levels of glucose, insulin, or free fatty acids relative to controls [2]: no significant differences

SMILES: O=C([O-])CC(O)(C(=O)[O-])C(O)C(=O)[O-].[K+].[K+].[K+] (centres unmarked) [KHCA, potassium hydroxycitrate]
- absolute CRP readings at week 4 compared with initially (C-reactive protein): lower at week 4 than initially
- Δ OD units after 4 wks (C-reactive protein) (C-reactive protein; intubated twice daily, serum, start to week 4, 1 OD unit equals 50 picograms/mL): −155 OD units
- body weight versus control [3]: greatest trend differences
